Reference: PubChem BioAssay AID328 (DTP/NCI, 2004)
Where “and” joins values, the source holds several entries; their conditions need not be identical. Identical values can stand only once. Toxic doses and inconclusive results are not listed.

System: BDF1 mice, P388 leukemia ip, median survival T/C
Test: NCI In Vivo Anticancer Drug Screen. Data for tumor model P388 Leukemia (intraperitoneal) in B6D2F1 (BDF1) mice
Conditions: endpoint: median survival time, higher = longer survival
In short: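 In tumour-bearing mice, survival after compound treatment is set against the vehicle group and given as a quotient.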

## COc1cccc2c1C(=O)c1c(O)c3c(c(O)c1C2=O)C[C@@](O)(C(=O)CO)C[C@@H]3OC1CC(N)C(O)C(C)O1 (some centres undefined)
dose: 0.25 mg/kg/injection, schedule: Q03HX024 (ip), vehicle: saline
  T/C: 230 % of control
dose: 0.37 mg/kg/injection, schedule: Q03HX024 (ip), vehicle: saline
  T/C: 285 % of control
dose: 0.39 mg/kg/injection, schedule: Q01DX009 (ip), vehicle: water
  T/C: 152 % of control
dose: 0.5 mg/kg/injection, schedule: Q01DX009 (ip), vehicle: saline
  T/C: 250 % of control
dose: 0.5 mg/kg/injection, schedule: Q03HX024 (ip), vehicle: saline
  T/C: 250 % of control
dose: 0.75 mg/kg/injection, schedule: Q03HX024 (ip), vehicle: saline
  T/C: 240 % of control
dose: 0.8 mg/kg/injection, schedule: Q01DX004 (ip), vehicle: saline
  T/C: 270 % of control
dose: 0.9 mg/kg/injection, schedule: Q01DX009 (ip), vehicle: clinical formulation
  T/C: 263 % of control
dose: 1.0 mg/kg/injection, schedule: Q01DX001 (ip), vehicle: saline
  T/C: 153 % of control
dose: 1.0 mg/kg/injection, schedule: Q01DX004 (ip), vehicle: saline
  T/C: 536 % of control
dose: 1.0 mg/kg/injection, schedule: Q01DX009 (ip), vehicle: saline
  T/C: 285 % of control
dose: 1.0 mg/kg/injection, schedule: Q03HX008 (ip), vehicle: water
  T/C: 250 % of control
dose: 1.0 mg/kg/injection, schedule: Q03HX016 (ip), vehicle: saline
  T/C: 290 % of control
dose: 1.0 mg/kg/injection, schedule: Q04DX003 (ip), vehicle: saline
  T/C: 106 % of control
dose: 1.0 mg/kg/injection, schedule: Q04DX009 (ip), vehicle: water
  T/C: 117 % of control
dose: 1.2 mg/kg/injection, schedule: Q01DX009 (ip), vehicle: saline
  T/C: 304 % of control
dose: 1.2 mg/kg/injection, schedule: Q03HX008 (ip), vehicle: saline
  T/C: 539 % of control
dose: 1.3 mg/kg/injection, schedule: Q01DX009 (ip), vehicle: clinical formulation
  T/C: 473 % of control
dose: 1.5 mg/kg/injection, schedule: Q01DX009 (ip), vehicle: saline
  T/C: 361 % of control
dose: 1.5 mg/kg/injection, schedule: Q03HX024 (sc), vehicle: saline
  T/C: 95 % of control
dose: 1.56 mg/kg/injection, schedule: Q01DX009 (ip), vehicle: water
  T/C: 224 % of control
dose: 1.6 mg/kg/injection, schedule: Q01DX004 (ip), vehicle: saline
  T/C: 423 % of control
dose: 1.73 mg/kg/injection, schedule: Q04DX003 (ip), vehicle: water
  T/C: 256 % of control
dose: 1.8 mg/kg/injection, schedule: Q01DX009 (ip), vehicle: saline
  T/C: 295 % of control and 306 % of control
dose: 1.8 mg/kg/injection, schedule: Q03HX008 (ip), vehicle: saline
  T/C: 539 % of control
dose: 1.8 mg/kg/injection, schedule: Q04DX003 (ip), vehicle: saline
  T/C: 122 % of control
dose: 1.8 mg/kg/injection, schedule: Q## X003 (ip), vehicle: saline
  T/C: 122 % of control
dose: 2.0 mg/kg/injection, schedule: Q01DX009 (ip), vehicle: clinical formulation
  T/C: 247 % of control
dose: 2.0 mg/kg/injection, schedule: Q01DX009 (ip), vehicle: saline
  T/C: 238 % of control and 250 % of control
dose: 2.0 mg/kg/injection, schedule: Q03HX008 (ip), vehicle: water
  T/C: 254 % of control
dose: 2.0 mg/kg/injection, schedule: Q04DX003 (ip), vehicle: saline
  T/C: 122 % of control
dose: 2.0 mg/kg/injection, schedule: Q06HX004 (ip), vehicle: water
  T/C: 300 % of control
dose: 2.16 mg/kg/injection, schedule: Q04DX003 (ip), vehicle: water
  T/C: 247 % of control
dose: 2.5 mg/kg/injection, schedule: Q01DX009 (ip), vehicle: saline
  T/C: 119 % of control
dose: 2.5 mg/kg/injection, schedule: Q01DX009 (sc), vehicle: saline
  T/C: 115 % of control
dose: 2.5 mg/kg/injection, schedule: Q04DX003 (ip), vehicle: water
  T/C: 237 % of control
dose: 2.7 mg/kg/injection, schedule: Q01DX009 (ip), vehicle: saline
  T/C: 124 % of control
dose: 2.7 mg/kg/injection, schedule: Q03HX008 (ip), vehicle: saline
  T/C: 92 % of control
dose: 2.7 mg/kg/injection, schedule: Q04DX003 (ip), vehicle: saline
  T/C: 122 % of control
dose: 2.7 mg/kg/injection, schedule: Q## X003 (ip), vehicle: saline
  T/C: 122 % of control
dose: 2.88 mg/kg/injection, schedule: Q04DX003 (ip), vehicle: water
  T/C: 241 % of control
dose: 3.0 mg/kg/injection, schedule: Q01DX009 (ip), vehicle: clinical formulation
  T/C: 473 % of control
dose: 3.0 mg/kg/injection, schedule: Q01DX009 (ip), vehicle: saline
  T/C: 104 % of control
dose: 3.0 mg/kg/injection, schedule: Q01DX009 (sc), vehicle: saline
  T/C: 100 % of control
dose: 3.0 mg/kg/injection, schedule: Q03HX008 (ip), vehicle: water
  T/C: 243 % of control
dose: 3.0 mg/kg/injection, schedule: Q04DX004 (ip), vehicle: saline
  T/C: 112 % of control
dose: 3.5 mg/kg/injection, schedule: Q01DX009 (ip), vehicle: saline
  T/C: 90 % of control
dose: 3.5 mg/kg/injection, schedule: Q01DX009 (sc), vehicle: saline
  T/C: 100 % of control
dose: 3.6 mg/kg/injection, schedule: Q01DX004 (ip), vehicle: saline with Tween-80
  T/C: 123 % of control
dose: 3.6 mg/kg/injection, schedule: Q04DX003 (ip), vehicle: saline + alcohol
  T/C: 232 % of control
dose: 3.6 mg/kg/injection, schedule: Q04DX003 (ip), vehicle: water
  T/C: 240 % of control and 259 % of control
dose: 4.0 mg/kg/injection, schedule: Q03HX008 (ip), vehicle: saline
  T/C: 541 % of control
dose: 4.0 mg/kg/injection, schedule: Q04DX003 (sc), vehicle: saline
  T/C: 150 % of control
dose: 4.0 mg/kg/injection, schedule: Q06HX004 (ip), vehicle: water
  T/C: 545 % of control
dose: 4.4 mg/kg/injection, schedule: Q01DX001 (ip), vehicle: saline
  T/C: 150 % of control
dose: 4.5 mg/kg/injection, schedule: Q01DX009 (ip), vehicle: clinical formulation
  T/C: 100 % of control
dose: 4.5 mg/kg/injection, schedule: Q04DX003 (ip), vehicle: saline
  T/C: 539 % of control and 571 % of control
dose: 4.8 mg/kg/injection, schedule: Q04DX003 (ip), vehicle: water
  T/C: 224 % of control and 247 % of control
dose: 5.0 mg/kg/injection, schedule: Q01DX001 (ip), vehicle: saline
  T/C: 252 % of control
dose: 5.0 mg/kg/injection, schedule: Q03HX008 (ip), vehicle: water
  T/C: 89 % of control
dose: 5.0 mg/kg/injection, schedule: Q07DX006 (ip), vehicle: saline
  T/C: 245 % of control
dose: 5.5 mg/kg/injection, schedule: Q04DX003 (ip), vehicle: saline
  T/C: 571 % of control
dose: 5.5 mg/kg/injection, schedule: Q04DX003 (sc), vehicle: saline
  T/C: 150 % of control
dose: 6.0 mg/kg/injection, schedule: Q01DX001 (ip), vehicle: saline
  T/C: 516 % of control
dose: 6.0 mg/kg/injection, schedule: Q04DX003 (ip), vehicle: saline + alcohol
  T/C: 270 % of control
dose: 6.0 mg/kg/injection, schedule: Q04DX003 (ip), vehicle: saline
  T/C: 225 % of control and 153 % of control
dose: 6.0 mg/kg/injection, schedule: Q04DX003 (ip), vehicle: water
  T/C: 250 % of control and 106 % of control and 123 % of control
dose: 6.0 mg/kg/injection, schedule: Q## X003 (ip), vehicle: saline
  T/C: 153 % of control
dose: 6.6 mg/kg/injection, schedule: Q01DX001 (iv), vehicle: saline
  T/C: 109 % of control
dose: 6.67 mg/kg/injection, schedule: Q04DX003 (ip), vehicle: saline
  T/C: 271 % of control
dose: 7.5 mg/kg/injection, schedule: Q01DX001 (ip), vehicle: saline
  T/C: 295 % of control
dose: 7.5 mg/kg/injection, schedule: Q01DX001 (sc), vehicle: saline
  T/C: 150 % of control
dose: 7.5 mg/kg/injection, schedule: Q07DX006 (ip), vehicle: saline
  T/C: 409 % of control
dose: 8.0 mg/kg/injection, schedule: Q04DX009 (ip), vehicle: water
  T/C: 150 % of control
dose: 8.4 mg/kg/injection, schedule: Q03HX008 (ip), vehicle: water
  T/C: 83 % of control
dose: 10.0 mg/kg/injection, schedule: Q01DX001 (ip), vehicle: water
  T/C: 268 % of control
dose: 10.0 mg/kg/injection, schedule: Q01DX001 (iv), vehicle: saline
  T/C: 117 % of control
dose: 10.0 mg/kg/injection, schedule: Q07DX006 (ip), vehicle: saline
  T/C: 313 % of control
dose: 12.0 mg/kg/injection, schedule: Q01DX001 (ip), vehicle: saline
  T/C: 486 % of control and 516 % of control (2×)
dose: 15.0 mg/kg/injection, schedule: Q01DX001 (iv), vehicle: saline
  T/C: 235 % of control and 312 % of control
dose: 16.0 mg/kg/injection, schedule: Q04DX009 (ip), vehicle: water
  T/C: 108 % of control
dose: 16.7 mg/kg/injection, schedule: Q01DX001 (ip), vehicle: water
  T/C: 112 % of control
dose: 20.0 mg/kg/injection, schedule: Q01DX001 (ip), vehicle: saline
  T/C: 104 % of control
dose: 20.0 mg/kg/injection, schedule: Q01DX001 (ip), vehicle: water
  T/C: 79 % of control
